{
  "source": "patent US20240108602A1",
  "about": "“TREATMENT OF MENTAL DISORDERS” (GH Research Ireland Limited, priority 2022, published 2024)",
  "key": {"[1]": {"tested_on": "Escherichia coli (WP2 uvrA pKM101)", "experiment": "Bacterial mutation test, Escherichia coli", "assay_type": "cell-based", "conditions": "up to 5000 pg/plate, with and without S-9", "source_text": "(§1) These conditions included treatments at concentrations up to […] (the maximum recommended concentration according to current regulatory guidelines), in the absence and in the presence of a rat liver metabolic activation system (S-9)."}, "[2]": {"tested_on": "Salmonella typhimurium (TA98, TA100, TA1535 and TA1537)", "experiment": "Bacterial mutation test, Salmonella typhimurium", "assay_type": "cell-based", "source_text": "as §1"}, "[3]": {"experiment": "Pharmacokinetics of 5-MeO-DMT and bufotenine after inhalation, LC-MS/MS", "assay_type": "in vivo, human", "method": "Blood samples were obtained at 1; 2; 4; 7; 10; 15; 20; 30; 45 min and 1; 1.5; 2; 3; 4 hours after administration.\nPK parameters were generated by algebraic analysis of the concentration versus time plots for each individual. The analysis was carried out using the software Phoenix WinNonlin 6.3."}},
  "data": [
    {"smiles": "COc1ccc2[nH]cc(CCN(C)C)c2c1", "note": "[5-MeO-DMT]", "values": [
      {"measurement": "induction of mutation", "setting": "[1]", "value": "did not induce mutation"},
      {"measurement": "in vitro genotoxicity assessment", "setting": "[2]", "value": "negative"},
      {"measurement": "induction of mutation", "setting": "[2]; up to 5000 μg/plate, with and without S-9", "value": "did not induce mutation"},
      {"measurement": "plasma concentration as % of Cmax", "setting": "[3]; 10 minutes after administration, 6-18 mg", "value": "≤ 10", "unit": "%"},
      {"measurement": "plasma concentration as % of Cmax", "setting": "[3]; after 2 hours, 6-18 mg", "value": "≤ 1", "unit": "%"},
      {"measurement": "detectability in plasma", "setting": "[3]; after 3 hours, 6-18 mg", "value": "no longer detectable"},
      {"measurement": "5-MeO-DMT still present, % Cmax", "setting": "[3]; after about 1 hour, healthy volunteers and PPD patients", "value": "less than 10%"},
      {"measurement": "accumulation upon repeated administration", "setting": "[3]; repeat within 1 to 4 hours", "value": "No accumulation"}
    ]}
  ]
}
